Patent publication US8802720B2, “Acylamino-substituted fused cyclopentanecarboxylic acid derivatives and their use as pharmaceuticals” (SANOFI, priority 2008, dated 2014)

Biological target: human Edg-2 receptor (LPA1 receptor) (Homo sapiens, UniProt Q92633)
Assay: Edg-2 receptor inhibition by FLIPR calcium fluorescence measurement (LPA-mediated calcium liberation)
Assay type: cell-based
Conditions: CHO cells stably overexpressing human Edg-2 receptor; LPA 18:1 100 nM; fluo-4 fluorescence; triplicate; read-out: Inhibitory concentrations IC50 for inhibition of the Edg-2 receptor
How it was run: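 CHO cells stably overexpressing human Edg-2 were fluo-4 loaded and pre-incubated ~5 min with compound (≤0.3% DMSO) in HBSS/HEPES/probenecid, pH 7.5. Then LPA 18:1 at 100 nM final was added. Peak calcium fluorescence over ~3 min, baseline-corrected versus DMSO, gave % inhibition in triplicate and IC50.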

human Edg-2 receptor (LPA1 receptor), sequence (Q92633 whole entry): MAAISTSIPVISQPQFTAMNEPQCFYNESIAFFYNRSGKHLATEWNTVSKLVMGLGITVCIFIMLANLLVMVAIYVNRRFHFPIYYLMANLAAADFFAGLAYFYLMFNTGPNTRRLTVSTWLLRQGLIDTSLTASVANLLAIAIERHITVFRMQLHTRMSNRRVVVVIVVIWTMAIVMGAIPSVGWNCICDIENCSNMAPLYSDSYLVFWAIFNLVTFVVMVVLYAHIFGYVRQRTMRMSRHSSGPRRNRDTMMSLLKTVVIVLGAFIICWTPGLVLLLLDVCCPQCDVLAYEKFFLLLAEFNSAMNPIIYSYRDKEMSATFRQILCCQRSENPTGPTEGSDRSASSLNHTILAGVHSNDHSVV

Compound | IC50 [nM]
COc1ccc(C(=O)NC2(C(=O)O)Cc3ccccc3C2)cc1OCCc1cccc(CCN)c1 [Example 246, 2-(3-{2-[3-(2-Amino-ethyl)-phenyl]-ethoxy}-4-methoxy-benzoylamino)-indane-2-carboxylic acid] | 1000 to 30000
COc1ccc(C(=O)NC2(C(=O)O)Cc3ccccc3C2)cc1OCCc1cccc(CCNC(C)=O)c1 [Example 247, 2-(3-{2-[3-(2-Acetylamino-ethyl)-phenyl]-ethoxy}-4-methoxy-benzoylamino)-indane-2-carboxylic acid] | 100 to 1000
COc1ccc(C(=O)NC2(C(=O)O)Cc3ccccc3C2)cc1OCCc1cccc(CC(N)=O)c1 [Example 248, 2-{3-[2-(3-Carbamoylmethyl-phenyl)-ethoxy]-4-methoxy-benzoylamino}-indane-2-carboxylic acid] | < 100
COc1ccc(C(=O)NC2(C(=O)O)Cc3ccccc3C2)cc1OCCc1cccc(CC(C)(C)O)c1 [Example 249, 2-(3-{2-[3-(2-Hydroxy-2-methyl-propyl)-phenyl]-ethoxy}-4-methoxy-benzoylamino)-indane-2-carboxylic acid] | < 100
COc1ccc(C(=O)NC2(C(=O)O)Cc3ccccc3C2)cc1OCC1(c2ccccc2)COC1 [Example 250, 2-[4-Methoxy-3-(3-phenyl-oxetan-3-ylmethoxy)-benzoylamino]-indane-2-carboxylic acid] | < 100
Cc1cccc(CCOc2cc(C(=O)NC3(C(=O)O)Cc4ccccc4C3)ccc2OCc2ccccc2)c1 [Example 253, 2-[4-Benzyloxy-3-(2-m-tolyl-ethoxy)-benzoylamino]-indane-2-carboxylic acid] | < 100
Cc1cccc(CCOc2cc(C(=O)NC3(C(=O)O)Cc4ccccc4C3)ccc2OCC2CCCCC2)c1 [Example 257] | < 100
Cc1cccc(CCOc2cc(C(=O)NC3(C(=O)O)Cc4ccccc4C3)ccc2OCC2CCOC2)c1 (stereo not shown) [Example 258] | < 100
Cc1cccc(CCOc2cc(C(=O)NC3(C(=O)O)Cc4ccccc4C3)ccc2OCCOC(C)(C)C)c1 [Example 259] | < 100
Cc1cccc(CCOc2cc(C(=O)NC3(C(=O)O)Cc4ccccc4C3)ccc2OCCC(F)(F)F)c1 [Example 260] | 100 to 1000
Cc1cccc(CCOc2cc(C(=O)NC3(C(=O)O)Cc4ccccc4C3)ccc2OCCC(C)(C)C)c1 [Example 261] | 100 to 1000
Cc1cccc(CCOc2cc(C(=O)NC3(C(=O)O)Cc4ccccc4C3)ccc2OCC2CCC2)c1 [Example 262] | < 100
CCCCCOc1ccc(C(=O)NC2(C(=O)O)Cc3ccccc3C2)cc1OCCc1cccc(C)c1 [Example 263] | < 100
Cc1cccc(CCOc2cc(C(=O)NC3(C(=O)O)Cc4ccccc4C3)ccc2OCC2CCCCO2)c1 (stereo not shown) [Example 264] | < 100
Cc1cccc(CCOc2cc(C(=O)NC3(C(=O)O)Cc4ccccc4C3)ccc2OCCN(C)C)c1 [Example 265] | 100 to 1000
Cc1cccc(CCOc2cc(C(=O)NC3(C(=O)O)Cc4ccccc4C3)ccc2OCC2CC2)c1 [Example 266, 2-[4-cyclopropylmethoxy-3-(2-m-tolyl-ethoxy)-benzoylamino]-indane-2-carboxylic acid] | < 100
CCc1sc(C(=O)NC2(C(=O)O)Cc3ccccc3C2)nc1OCCc1cccc(C)c1 [Example 273, 2-{[5-Ethyl-4-(2-m-tolyl-ethoxy)-thiazole-2-carbonyl]-amino}-indane-2-carboxylic acid] | 100 to 1000
COc1ncc(C(=O)NC2(C(=O)O)Cc3ccccc3C2)cc1OCCc1cc(C)ccc1F [Example 274, 2-({5-[2-(2-Fluoro-5-methyl-phenyl)-ethoxy]-6-methoxy-pyridine-3-carbonyl}-amino)-indane-2-carboxylic acid] | < 100
COc1ncc(C(=O)NC2(C(=O)O)Cc3ccccc3C2)cc1OCCc1cccc(CCO)c1 [Example 275, 2-[(5-{2-[3-(2-Hydroxy-ethyl)-phenyl]-ethoxy}-6-methoxy-pyridine-3-carbonyl)-amino]-indane-2-carboxylic acid] | < 100
COc1c(F)cc(C(=O)NC2(C(=O)O)Cc3ccccc3C2)cc1OCCc1cccc(CCO)c1 [Example 276, 2-(3-Fluoro-5-{2-[3-(2-hydroxy-ethyl)-phenyl]-ethoxy}-4-methoxy-benzoylamino)-indane-2-carboxylic acid] | < 100
COc1ccc(C(=O)NC2(C(=O)O)Cc3ccccc3C2)cc1OCCC1CCCC(C)C1 (stereo not shown) [Example 278, 2-{4-Methoxy-3-[2-(3-methyl-cyclohexyl)-ethoxy]-benzoylamino}-indane-2-carboxylic acid] | 1000 to 30000
COc1ccc(C(=O)NC2(C(=O)O)Cc3ccccc3C2)cc1-c1ccc(Cl)cc1 [Example 280] | 100 to 1000
COc1ccc(C(=O)NC2(C(=O)O)Cc3ccccc3C2)cc1-c1cncc(Cl)c1 [Example 282, 2-[3-(5-chloro-pyridin-3-yl)-4-methoxy-benzoylamino]-indane-2-carboxylic acid] | 100 to 1000
COc1ccc(C(=O)NC2(C(=O)O)Cc3ccccc3C2)cc1-c1cccc(C#N)n1 [Example 283] | 1000 to 30000
COc1ccc(C(=O)NC2(C(=O)O)Cc3ccccc3C2)cc1-c1cncc(C#N)c1 [Example 284] | < 100
COc1ccc(C(=O)NC2(C(=O)O)Cc3ccccc3C2)cc1-c1cccc(NC(C)=O)c1 [Example 287] | 100 to 1000
COc1ccc(C(=O)NC2(C(=O)O)Cc3ccccc3C2)cc1-c1cc(C(F)(F)F)ccc1Cl [Example 289] | 100 to 1000

Other lines, results leading:

IC50 [nM] | Compound
1000 to 30000 | COc1ccc(C(=O)NC2(C(=O)O)Cc3ccccc3C2)cc1C(=O)c1ccccc1C [Example 240, 2-[4-Methoxy-3-(2-methyl-benzoyl)-benzoylamino]-indane-2-carboxylic acid]
1000 to 30000 | COc1ccc(C(=O)NC2(C(=O)O)Cc3ccccc3C2)cc1C(O)c1ccccc1C (stereo not shown) [Example 241, 2-[3-(Hydroxy-o-tolyl-methyl)-4-methoxy-benzoylamino]-indane-2-carboxylic acid]
100 to 1000 | COc1ccc(C(=O)NC2(C(=O)O)Cc3ccccc3C2)cc1Cc1ccccc1C [Example 242, 2-[4-Methoxy-3-(2-methyl-benzyl)-benzoylamino]-indane-2-carboxylic acid]
1000 to 30000 | COc1ccc(C(=O)NC2(C(=O)O)Cc3ccccc3C2)cc1Cc1ccccc1 [Example 243, 2-[4-Methoxy-3-benzyl-benzoylamino]-indane-2-carboxylic acid]
100 to 1000 | COc1ccc(C(=O)NC2(C(=O)O)Cc3ccccc3C2)cc1Cc1cccc(C)c1 [Example 244, 2-[4-Methoxy-3-(3-methyl-benzyl)-benzoylamino]-indane-2-carboxylic acid]
< 100 | COc1ccc(C(=O)NC2(C(=O)O)Cc3ccccc3C2)cc1Cc1ccc(C)cc1 [Example 245, 2-[4-Methoxy-3-(4-methyl-benzyl)-benzoylamino]-indane-2-carboxylic acid]
1000 to 30000 | COc1ccc(C(=O)NC2(C(=O)O)Cc3ccccc3C2)cc1OCCc1cccc(O)c1 [Example 251, 2-{3-[2-(3-Hydroxy-phenyl)-ethoxy]-4-methoxy-benzoylamino}-indane-2-carboxylic acid]
100 to 1000 | COc1cc(C(=O)NC2(C(=O)O)Cc3ccccc3C2)ccc1OCCc1cccc(C)c1 [Example 252, 2-[3-Methoxy-4-(2-m-tolyl-ethoxy)-benzoylamino]-indane-2-carboxylic acid]
1000 to 30000 | Cc1cccc(CCOc2cc(C(=O)NC3(C(=O)O)Cc4ccccc4C3)ccc2O)c1 [Example 254, 2-[4-Hydroxy-3-(2-m-tolyl-ethoxy)-benzoylamino]-indane-2-carboxylic acid]
< 100 | Cc1cccc(CCOc2cc(C(=O)NC3(C(=O)O)Cc4ccccc4C3)ccc2OC(C)C)c1 [Example 255, 2-[4-Isopropoxy-3-(2-m-tolyl-ethoxy)-benzoylamino]-indane-2-carboxylic acid]
< 100 | COCCOc1ccc(C(=O)NC2(C(=O)O)Cc3ccccc3C2)cc1OCCc1cccc(C)c1 [Example 256]
< 100 | CSCCOc1ccc(C(=O)NC2(C(=O)O)Cc3ccccc3C2)cc1OCCc1cccc(C)c1 [Example 267]
< 100 | Cc1cccc(CCOc2cc(C(=O)NC3(C(=O)O)Cc4ccccc4C3)ccc2OCCF)c1 [Example 268]
< 100 | C=CCOc1ccc(C(=O)NC2(C(=O)O)Cc3ccccc3C2)cc1OCCc1cccc(C)c1 [Example 269]
< 100 | Cc1cccc(CCOc2cc(C(=O)NC3(C(=O)O)Cc4ccccc4C3)ccc2OCCO)c1 [Example 270, 2-[4-(2-Hydroxy-ethoxy)-3-(2-m-tolyl-ethoxy)-benzoylamino]-indane-2-carboxylic acid]
100 to 1000 | Cc1cccc(CCOc2cc(C(=O)NC3(C(=O)O)Cc4ccccc4C3)ccc2OCC(=O)O)c1 [Example 271, 2-[4-Carboxymethoxy-3-(2-m-tolyl-ethoxy)-benzoylamino]-indane-2-carboxylic acid]
100 to 1000 | Cc1cccc(CCOc2cc(C(=O)NC3(C(=O)O)Cc4ccccc4C3)ccc2OC2CC2)c1 [Example 272, 2-[4-Cyclopropoxy-3-(2-m-tolyl-ethoxy)-benzoylamino]-indane-2-carboxylic acid]
1000 to 30000 | COc1ccc(C(=O)NC2(C(=O)O)Cc3ccccc3C2)c(F)c1OCCc1cccc(C)c1 [Example 277, 2-[2-Fluoro-4-methoxy-3-(2-m-tolyl-ethoxy)-benzoylamino]-indane-2-carboxylic acid]
100 to 1000 | COc1ccc(C(=O)NC2(C(=O)O)Cc3ccccc3C2)cc1COCc1cccc(C)c1 [Example 279, 2-[4-Methoxy-3-(3-methyl-benzyloxymethyl)-benzoylamino]-indane-2-carboxylic acid]
1000 to 30000 | COc1ccc(C(=O)NC2(C(=O)O)Cc3ccccc3C2)cc1-c1ccccc1Cl [Example 281]
< 100 | COc1ccc(C(=O)NC2(C(=O)O)Cc3ccccc3C2)cc1-c1cccc(C)c1 [Example 286]
100 to 1000 | CCOc1cccc(-c2cc(C(=O)NC3(C(=O)O)Cc4ccccc4C3)ccc2OC)c1 [Example 288]
